Key:
Experiment in all cases: NCI 60 cell line screen
[1] = tested on: A549/ATCC; format: cell-based; details: Non-Small Cell Lung Cancer, single concentration 10^−5 M
Procedure: (§1) The cytotoxic activity of nortopsintin analogs (4a-4j) was determined by the national cancer institute (NCI, Bethesda, Maryland, USA) against 60 different cancer cell lines at a single concentration of (10^-5 M). For the determination of IC50 value, we used MTT assay kit (Sigma) according to the manufacturer's protocol. HCT-116 cells were seeded into a 96-well plate at a concentration of 20,000 cells/well. After 24 h, the media was aspirated and replaced with serum-free media containing serial dilutions of the 4i compound. […] The percentage of cytotoxicity was calculated using the following equation: % Cytotoxicity = [1 - ([…])] × 100.

[2] = tested on: 786-0; format: cell-based; details: 786-0, Renal Cancer; single concentration 10^−5 M
Procedure: as §1

[3] = tested on: SNB-75; format: cell-based; details: SNB-75, CNS Cancer; single concentration 10^−5 M
Procedure: as §1

[4] = tested on: CCRF-CEM; format: cell-based; details: Leukemia, single concentration 10^−5 M
Procedure: as §1

[5] = tested on: SN12C; format: cell-based; details: Renal Cancer, single concentration 10^−5 M
Procedure: as §1

[6] = tested on: SK-OV-3; format: cell-based; details: SK-OV-3, Ovarian Cancer; single concentration 10^−5 M
Procedure: as §1

[7] = tested on: SNB-19; format: cell-based; details: SNB-19, CNS Cancer; single concentration 10^−5 M
Procedure: as §1

[8] = tested on: HCC-2998; format: cell-based; details: HCC-2998, Colon Cancer; single concentration 10^−5 M
Procedure: as §1

[9] = tested on: CAKI-1; format: cell-based; details: CAKI-1, Renal Cancer; single concentration 10^−5 M
Procedure: as §1

[10] = tested on: HL-60 (TB); format: cell-based; details: Leukemia, single concentration 10^−5 M
Procedure: as §1

[11] = tested on: SW-620; format: cell-based; details: SW-620, Colon Cancer; single concentration 10^−5 M
Procedure: as §1

[12] = tested on: M14; format: cell-based; details: M14, Melanoma; single concentration 10^−5 M
Procedure: as §1

[13] = tested on: OVCAR-8; format: cell-based; details: OVCAR-8, Ovarian Cancer; single concentration 10^−5 M
Procedure: as §1

[14] = tested on: OVCAR-5; format: cell-based; details: OVCAR-5, Ovarian Cancer; single concentration 10^−5 M
Procedure: as §1

[15] = tested on: COLO205; format: cell-based; details: COLO205, Colon Cancer; single concentration 10^−5 M
Procedure: as §1

[16] = tested on: HOP-92; format: cell-based; details: HOP-92, Non-Small Cell Lung Cancer; single concentration 10^−5 M
Procedure: as §1

[17] = tested on: HT29; format: cell-based; details: HT29, Colon Cancer; single concentration 10^−5 M
Procedure: as §1

[18] = tested on: SK-MEL-2; format: cell-based; details: SK-MEL-2, Melanoma; single concentration 10^−5 M
Procedure: as §1

[19] = tested on: NCI/ADR-RES; format: cell-based; details: Ovarian Cancer, single concentration 10^−5 M
Procedure: as §1

[20] = tested on: NCI-H226; format: cell-based; details: NCI-H226, Non-Small Cell Lung Cancer; single concentration 10^−5 M
Procedure: as §1

[21] = tested on: IGROV1; format: cell-based; details: IGROV1, Ovarian Cancer; single concentration 10^−5 M
Procedure: as §1

[22] = tested on: MCF7; format: cell-based; details: MCF7, Breast Cancer; single concentration 10^−5 M
Procedure: as §1

[23] = tested on: SK-MEL-5; format: cell-based; details: SK-MEL-5, Melanoma; single concentration 10^−5 M
Procedure: as §1

[24] = tested on: A498; format: cell-based; details: A498, Renal Cancer; single concentration 10^−5 M
Procedure: as §1

[25] = tested on: NCI-H460; format: cell-based; details: NCI-H460, Non-Small Cell Lung Cancer; single concentration 10^−5 M
Procedure: as §1

[26] = tested on: RXF 393; format: cell-based; details: RXF 393, Renal Cancer; single concentration 10^−5 M
Procedure: as §1

[27] = tested on: MOLT-4; format: cell-based; details: MOLT-4, Leukemia; single concentration 10^−5 M
Procedure: as §1

[28] = tested on: ACHN; format: cell-based; details: Renal Cancer, single concentration 10^−5 M
Procedure: as §1

[29] = tested on: EKVX; format: cell-based; details: Non-Small Cell Lung Cancer, single concentration 10^−5 M
Procedure: as §1

[30] = tested on: HOP-62; format: cell-based; details: HOP-62, Non-Small Cell Lung Cancer; single concentration 10^−5 M
Procedure: as §1

[31] = tested on: K-562; format: cell-based; details: K-562, Leukemia; single concentration 10^−5 M
Procedure: as §1

[32] = tested on: MALME-3M; format: cell-based; details: Melanoma, single concentration 10^−5 M
Procedure: as §1

[33] = tested on: KM12; format: cell-based; details: KM12, Colon Cancer; single concentration 10^−5 M
Procedure: as §1

[34] = tested on: SF-539; format: cell-based; details: SF-539, CNS Cancer; single concentration 10^−5 M
Procedure: as §1

[35] = tested on: NCI-H322M; format: cell-based; details: Non-Small Cell Lung Cancer, single concentration 10^−5 M
Procedure: as §1

[36] = tested on: MDA-MB-231/ATCC; format: cell-based; details: Breast Cancer, single concentration 10^−5 M
Procedure: as §1

[37] = tested on: T-47D; format: cell-based; details: Breast Cancer, single concentration 10^−5 M
Procedure: as §1

[38] = tested on: HCT-116; format: cell-based, human; details: HCT-116, Colon Cancer; single concentration 10^−5 M
Procedure: as §1

Compound | Growth % [1] [%] | Growth % [2] [%] | Growth % [3] [%] | Growth % [5] [%] | Growth % [6] [%] | Growth % [7] [%] | Growth % [8] [%] | Growth % [9] [%] | Growth % [10] [%] | Growth % [11] [%] | Growth % [12] [%] | Growth % [13] [%] | Growth % [14] [%] | Growth % [15] [%] | Growth % [16] [%] | Growth % [17] [%] | Growth % [18] [%] | Growth % [19] [%] | Growth % [20] [%] | Growth % [21] [%] | further results
N#Cc1c(-c2ccc(F)cc2)cc(-c2c[nH]c3ccccc23)nc1-c1c[nH]c2ccccc12 [4d] | 101.42 | 99.50 | 98.55 | 98.76 | 96.90 | 102.08 | 109.40 | 92.51 | 98.89 | 106.63 | 97.40 | 100.20 | 109.33 | 113.48 | 93.44 | 110.19 | 96.13 | 103.38 | 94.04 | 102.10 | Growth % [4]: 102.09%; Growth % [22]: 89.33%; Growth % [23]: 100.33%; Growth % [24]: 89.44%; Growth % [25]: 104.14%; Growth % [26]: 111.59%; Growth % [27]: 103.02%; Growth % [28]: 101.89%; Growth % [29]: 92.76%; Growth % [30]: 100.69%; Growth % [31]: 104.54%; Growth % [32]: 101.85%; Growth % [33]: 100.66%; Growth % [34]: 100.06%; Growth % [35]: 106.25%; Growth % [36]: 102.47%; Growth % [37]: 89.92%; Growth % [38]: 104.67%
COc1cc(OC)cc(-c2cc(-c3c[nH]c4ccccc34)nc(-c3c[nH]c4ccccc34)c2C#N)c1 [4f] | 98.51 | 104.74 | 87.63 | 95.11 | 99.89 | 96.57 | 112.62 | 91.03 | 101.74 | 102.51 | 94.97 | 102.00 | 108.89 | 110.17 | 95.02 | 108.12 | 88.37 | 97.14 | 87.28 | 93.71 | Growth % [22]: 90.74%; Growth % [23]: 98.48%; Growth % [24]: 96.67%; Growth % [25]: 103.37%; Growth % [26]: 107.63%; Growth % [27]: 98.62%; Growth % [28]: 97.24%; Growth % [29]: 91.45%; Growth % [30]: 96.31%; Growth % [31]: 93.22%; Growth % [32]: 108.42%; Growth % [33]: 98.72%; Growth % [34]: 94.25%; Growth % [35]: 104.89%; Growth % [36]: 100.79%; Growth % [37]: 98.31%; Growth % [38]: 100.81%
